Assay results published in the NIST ThermoML archive (doi:10.1021/je900719z).
Numbers after ± are expanded uncertainties.

Conditions: Liquid, Ebulliometric method (Recirculating still)

CCO [ethanol]
vapor or sublimation pressure (325.48 K): 33 ± 0.11 kPa
vapor or sublimation pressure (326.03 K): 33.9 ± 0.11 kPa
vapor or sublimation pressure (326.48 K): 34.6 ± 0.11 kPa
vapor or sublimation pressure (326.93 K): 35.3 ± 0.11 kPa
vapor or sublimation pressure (327.33 K): 36 ± 0.11 kPa
vapor or sublimation pressure (327.8 K): 36.8 ± 0.11 kPa
vapor or sublimation pressure (328.26 K): 37.6 ± 0.11 kPa
vapor or sublimation pressure (328.73 K): 38.4 ± 0.11 kPa
vapor or sublimation pressure (329.18 K): 39.2 ± 0.11 kPa
vapor or sublimation pressure (329.62 K): 40 ± 0.11 kPa
vapor or sublimation pressure (330.11 K): 40.9 ± 0.11 kPa
vapor or sublimation pressure (330.62 K): 41.9 ± 0.11 kPa
vapor or sublimation pressure (331.16 K): 42.9 ± 0.11 kPa
vapor or sublimation pressure (331.66 K): 43.9 ± 0.11 kPa
vapor or sublimation pressure (332.17 K): 44.9 ± 0.11 kPa
vapor or sublimation pressure (332.68 K): 45.9 ± 0.11 kPa
vapor or sublimation pressure (333.15 K): 46.9 ± 0.11 kPa
vapor or sublimation pressure (333.86 K): 48.4 ± 0.11 kPa
vapor or sublimation pressure (334.55 K): 49.9 ± 0.11 kPa
vapor or sublimation pressure (335.17 K): 51.3 ± 0.11 kPa
vapor or sublimation pressure (335.84 K): 52.8 ± 0.11 kPa
vapor or sublimation pressure (336.28 K): 53.85 ± 0.11 kPa
vapor or sublimation pressure (336.81 K): 55.13 ± 0.11 kPa
vapor or sublimation pressure (337.31 K): 56.32 ± 0.11 kPa
vapor or sublimation pressure (337.86 K): 57.69 ± 0.11 kPa
vapor or sublimation pressure (338.32 K): 58.87 ± 0.11 kPa
vapor or sublimation pressure (338.97 K): 60.49 ± 0.11 kPa
vapor or sublimation pressure (339.47 K): 61.82 ± 0.11 kPa
vapor or sublimation pressure (339.99 K): 63.19 ± 0.11 kPa
vapor or sublimation pressure (340.47 K): 64.47 ± 0.12 kPa
vapor or sublimation pressure (340.82 K): 65.48 ± 0.12 kPa
vapor or sublimation pressure (341.18 K): 66.45 ± 0.12 kPa
vapor or sublimation pressure (341.68 K): 67.91 ± 0.12 kPa
vapor or sublimation pressure (342.01 K): 68.92 ± 0.12 kPa
vapor or sublimation pressure (342.53 K): 70.35 ± 0.12 kPa
vapor or sublimation pressure (343.05 K): 71.88 ± 0.12 kPa
vapor or sublimation pressure (343.54 K): 73.35 ± 0.12 kPa
vapor or sublimation pressure (343.97 K): 74.68 ± 0.12 kPa
vapor or sublimation pressure (344.41 K): 76.08 ± 0.12 kPa
vapor or sublimation pressure (344.93 K): 77.68 ± 0.12 kPa
vapor or sublimation pressure (345.3 K): 78.95 ± 0.12 kPa
vapor or sublimation pressure (345.77 K): 80.44 ± 0.12 kPa
vapor or sublimation pressure (346.17 K): 81.82 ± 0.12 kPa
vapor or sublimation pressure (346.75 K): 83.74 ± 0.12 kPa
vapor or sublimation pressure (347.17 K): 85.17 ± 0.12 kPa
vapor or sublimation pressure (347.51 K): 86.38 ± 0.12 kPa
vapor or sublimation pressure (347.91 K): 87.78 ± 0.12 kPa
vapor or sublimation pressure (348.29 K): 89.17 ± 0.12 kPa
vapor or sublimation pressure (348.62 K): 90.34 ± 0.12 kPa
vapor or sublimation pressure (349.03 K): 91.82 ± 0.13 kPa
vapor or sublimation pressure (349.36 K): 93.08 ± 0.13 kPa
vapor or sublimation pressure (349.67 K): 94.24 ± 0.13 kPa
vapor or sublimation pressure (350.05 K): 95.68 ± 0.13 kPa
vapor or sublimation pressure (350.44 K): 97.16 ± 0.13 kPa
vapor or sublimation pressure (350.82 K): 98.63 ± 0.13 kPa
vapor or sublimation pressure (351.17 K): 100.02 ± 0.13 kPa
vapor or sublimation pressure (351.51 K): 101.38 ± 0.13 kPa
vapor or sublimation pressure (351.76 K): 102.37 ± 0.13 kPa
vapor or sublimation pressure (352.07 K): 103.64 ± 0.13 kPa
vapor or sublimation pressure (352.45 K): 105.17 ± 0.13 kPa
vapor or sublimation pressure (352.79 K): 106.59 ± 0.13 kPa
vapor or sublimation pressure (353.15 K): 108.08 ± 0.13 kPa
vapor or sublimation pressure (353.5 K): 109.58 ± 0.13 kPa
vapor or sublimation pressure (353.79 K): 110.8 ± 0.13 kPa
vapor or sublimation pressure (354.14 K): 112.36 ± 0.13 kPa
vapor or sublimation pressure (354.46 K): 113.75 ± 0.13 kPa
vapor or sublimation pressure (354.82 K): 115.35 ± 0.14 kPa
vapor or sublimation pressure (355.15 K): 116.81 ± 0.14 kPa
vapor or sublimation pressure (355.51 K): 118.44 ± 0.14 kPa
vapor or sublimation pressure (355.85 K): 120.01 ± 0.14 kPa
vapor or sublimation pressure (356.22 K): 121.68 ± 0.14 kPa
vapor or sublimation pressure (356.54 K): 123.23 ± 0.14 kPa
vapor or sublimation pressure (356.81 K): 124.46 ± 0.14 kPa
vapor or sublimation pressure (357.16 K): 126.16 ± 0.14 kPa
vapor or sublimation pressure (357.48 K): 127.68 ± 0.14 kPa
vapor or sublimation pressure (357.89 K): 129.67 ± 0.14 kPa

O [water]
vapor or sublimation pressure (333.02 K): 19.55 ± 0.1 kPa
vapor or sublimation pressure (333.56 K): 20.05 ± 0.1 kPa
vapor or sublimation pressure (334.08 K): 20.55 ± 0.1 kPa
vapor or sublimation pressure (334.59 K): 21.05 ± 0.1 kPa
vapor or sublimation pressure (335.15 K): 21.6 ± 0.1 kPa
vapor or sublimation pressure (335.64 K): 22.1 ± 0.1 kPa
vapor or sublimation pressure (336.11 K): 22.6 ± 0.1 kPa
vapor or sublimation pressure (336.66 K): 23.15 ± 0.1 kPa
vapor or sublimation pressure (337.12 K): 23.65 ± 0.1 kPa
vapor or sublimation pressure (337.65 K): 24.22 ± 0.1 kPa
vapor or sublimation pressure (338.13 K): 24.75 ± 0.1 kPa
vapor or sublimation pressure (338.6 K): 25.3 ± 0.1 kPa
vapor or sublimation pressure (339.12 K): 25.9 ± 0.1 kPa
vapor or sublimation pressure (339.62 K): 26.45 ± 0.1 kPa
vapor or sublimation pressure (340.15 K): 27.1 ± 0.1 kPa
vapor or sublimation pressure (340.63 K): 27.7 ± 0.1 kPa
vapor or sublimation pressure (341.25 K): 28.45 ± 0.1 kPa
vapor or sublimation pressure (341.67 K): 29 ± 0.1 kPa
vapor or sublimation pressure (342.13 K): 29.6 ± 0.1 kPa
vapor or sublimation pressure (342.71 K): 30.33 ± 0.1 kPa
vapor or sublimation pressure (343.17 K): 30.95 ± 0.1 kPa
vapor or sublimation pressure (343.73 K): 31.72 ± 0.1 kPa
vapor or sublimation pressure (344.21 K): 32.4 ± 0.1 kPa
vapor or sublimation pressure (344.73 K): 33.15 ± 0.1 kPa
vapor or sublimation pressure (345.22 K): 33.85 ± 0.1 kPa
vapor or sublimation pressure (345.66 K): 34.5 ± 0.1 kPa
vapor or sublimation pressure (346.11 K): 35.15 ± 0.1 kPa
vapor or sublimation pressure (346.61 K): 35.9 ± 0.11 kPa
vapor or sublimation pressure (347.15 K): 36.75 ± 0.11 kPa
vapor or sublimation pressure (347.62 K): 37.5 ± 0.11 kPa
vapor or sublimation pressure (348.15 K): 38.32 ± 0.11 kPa
vapor or sublimation pressure (348.22 K): 38.47 ± 0.11 kPa
vapor or sublimation pressure (348.65 K): 39.18 ± 0.11 kPa
vapor or sublimation pressure (349.17 K): 40.04 ± 0.11 kPa
vapor or sublimation pressure (349.68 K): 40.88 ± 0.11 kPa
vapor or sublimation pressure (350.22 K): 41.85 ± 0.11 kPa
vapor or sublimation pressure (350.66 K): 42.59 ± 0.11 kPa
vapor or sublimation pressure (351.18 K): 43.5 ± 0.11 kPa
vapor or sublimation pressure (351.67 K): 44.39 ± 0.11 kPa
vapor or sublimation pressure (352.13 K): 45.28 ± 0.11 kPa
vapor or sublimation pressure (352.64 K): 46.19 ± 0.11 kPa
vapor or sublimation pressure (353.13 K): 47.14 ± 0.11 kPa
vapor or sublimation pressure (353.65 K): 48.15 ± 0.11 kPa
vapor or sublimation pressure (354.12 K): 49.06 ± 0.11 kPa
vapor or sublimation pressure (354.63 K): 50.07 ± 0.11 kPa
vapor or sublimation pressure (355.13 K): 51.1 ± 0.11 kPa
vapor or sublimation pressure (355.71 K): 52.36 ± 0.11 kPa
vapor or sublimation pressure (356.14 K): 53.24 ± 0.11 kPa
vapor or sublimation pressure (356.65 K): 54.34 ± 0.11 kPa
vapor or sublimation pressure (357.13 K): 55.42 ± 0.11 kPa
vapor or sublimation pressure (357.69 K): 56.64 ± 0.11 kPa
vapor or sublimation pressure (358.16 K): 57.69 ± 0.11 kPa
vapor or sublimation pressure (358.65 K): 58.78 ± 0.11 kPa
vapor or sublimation pressure (359.19 K): 60.08 ± 0.11 kPa
vapor or sublimation pressure (359.62 K): 61.09 ± 0.11 kPa
vapor or sublimation pressure (360.26 K): 62.64 ± 0.11 kPa
vapor or sublimation pressure (360.74 K): 63.82 ± 0.11 kPa
vapor or sublimation pressure (361.2 K): 64.95 ± 0.11 kPa
vapor or sublimation pressure (361.61 K): 65.98 ± 0.11 kPa
vapor or sublimation pressure (362.13 K): 67.33 ± 0.11 kPa
vapor or sublimation pressure (362.71 K): 68.85 ± 0.11 kPa
vapor or sublimation pressure (363.17 K): 70.05 ± 0.11 kPa
vapor or sublimation pressure (363.72 K): 71.54 ± 0.11 kPa
vapor or sublimation pressure (364.28 K): 73.07 ± 0.12 kPa
vapor or sublimation pressure (364.75 K): 74.38 ± 0.12 kPa
vapor or sublimation pressure (365.34 K): 76.08 ± 0.12 kPa
vapor or sublimation pressure (365.84 K): 77.53 ± 0.12 kPa
vapor or sublimation pressure (366.34 K): 78.95 ± 0.12 kPa
vapor or sublimation pressure (366.86 K): 80.58 ± 0.12 kPa
vapor or sublimation pressure (367.35 K): 82.03 ± 0.12 kPa
vapor or sublimation pressure (367.83 K): 83.48 ± 0.12 kPa
vapor or sublimation pressure (368.33 K): 85.04 ± 0.12 kPa
vapor or sublimation pressure (368.8 K): 86.54 ± 0.12 kPa
vapor or sublimation pressure (369.27 K): 88.07 ± 0.12 kPa
vapor or sublimation pressure (369.69 K): 89.44 ± 0.12 kPa
vapor or sublimation pressure (370.03 K): 90.54 ± 0.12 kPa
vapor or sublimation pressure (370.62 K): 92.52 ± 0.12 kPa
vapor or sublimation pressure (371.09 K): 94.12 ± 0.12 kPa
vapor or sublimation pressure (371.52 K): 95.59 ± 0.12 kPa
vapor or sublimation pressure (371.94 K): 97.02 ± 0.12 kPa
vapor or sublimation pressure (372.36 K): 98.48 ± 0.12 kPa
vapor or sublimation pressure (372.78 K): 100.03 ± 0.13 kPa
vapor or sublimation pressure (373.16 K): 101.39 ± 0.13 kPa
vapor or sublimation pressure (373.59 K): 103 ± 0.13 kPa
vapor or sublimation pressure (374 K): 104.48 ± 0.13 kPa
vapor or sublimation pressure (374.39 K): 105.94 ± 0.13 kPa
vapor or sublimation pressure (374.82 K): 107.57 ± 0.13 kPa
vapor or sublimation pressure (375.18 K): 108.97 ± 0.13 kPa
vapor or sublimation pressure (375.6 K): 110.58 ± 0.13 kPa
vapor or sublimation pressure (376.1 K): 112.55 ± 0.13 kPa
vapor or sublimation pressure (376.46 K): 113.99 ± 0.13 kPa
vapor or sublimation pressure (376.86 K): 115.58 ± 0.13 kPa
vapor or sublimation pressure (377.21 K): 117.02 ± 0.13 kPa
vapor or sublimation pressure (377.57 K): 118.54 ± 0.13 kPa
vapor or sublimation pressure (377.92 K): 119.94 ± 0.13 kPa
vapor or sublimation pressure (378.29 K): 121.58 ± 0.13 kPa
vapor or sublimation pressure (378.65 K): 123.07 ± 0.13 kPa
vapor or sublimation pressure (378.99 K): 124.48 ± 0.13 kPa
vapor or sublimation pressure (379.33 K): 126.01 ± 0.13 kPa
vapor or sublimation pressure (379.71 K): 127.64 ± 0.13 kPa
vapor or sublimation pressure (380 K): 128.92 ± 0.14 kPa
vapor or sublimation pressure (380.36 K): 130.53 ± 0.14 kPa
vapor or sublimation pressure (380.74 K): 132.25 ± 0.14 kPa
